Assay results from patent US10570149B2, “Tricyclic heterocylic derivatives” (MERCK PATENT GMBH, priority 2016, dated 2020).

Columns and labels:
[1] = tested on: phosphorylation of H2AX (gH2AX) in U2OS-TopBP1-ER cells; assay: gH2AX-TopBP1ER cellular assay; type: cell-based; settings: Table 1, class symbols, 4-OHT
From the text: gH2AX-TopBP1ER Cellular Assay
ATR activity is restricted to replicating cells and many of its targets can also be phosphorylated by other PIKKs. These restrictions have limited the development of selective cellular assays in the past. In order to overcome these limitations, a previously developed genetically engineered cellular system in which ATR, and only ATR, can be activated at will in every cell (Toledo et al Genes Dev. 22, 297-302 2008) was used. In this system, the addition of 4-hydroxytamoxifen (4-OHT), promotes the nuclear translocation of a fragment of TopBP1 which then activates ATR. The phosphorylation of H2AX that follows 4-OHT addition in these cells is a direct and selective readout of ATR activity, which is not influenced by the rest of PIKKs. This property has been used in a screen for compounds with ATR inhibitory capacity. U2OS-TopBP1-ER cells stably express the TopBP1 activation domain (aa 978-1286) fused to a mutated estrogen receptor ligand binding domain. Nuclear accumulation of the TopBP1-ER-LBD fusion protein is induced by the synthetic ER antagonist 4-hydroxytamoxifen (4-OHT) (and not by natural ER agonists) mediating specific ATR activation that is independent of DNA damage or cell cycle. In the assay phosphorylation of the ATR substrate H2AX (“gH2AX”) at Serin 139 is detected using an immune-cytochemical procedure and high content imaging. For the assay U2OS-TopBP1-ER cells are plated in culture medium (DMEM high Glucose (no phenol red), 2 mM Glutamax, 1 mM Pyruvate, 10% FCS into Greiner 384 well plates, black, μclear #781090 (4000 cells/well/30 μl) and incubated for at least 20 hours at 37° C., 10% CO2 and 90% rH. Diluted test compounds (1 nM-30 μM final) and 4-OHT (1 μM final) are added simultaneously and cells are incubated for 2 h at 37° C. After fixation with 4% formaldehyde and permeabilisation with 0.2% Triton X-100 a complete immunocytochemical procedure is performed using a specific anti-gH2AX-antibody (Millipore 05-636, clone JBW301) and fluorescently labelled secondary antibody (Alexa Fluor® 488 goat anti-mouse F(ab′)2 fragment, Invitrogen A11017) and parallel nuclear staining for cell counting. The nuclear localised gH2AX signal is detected on an ImageXpress Ultra confocal high content reader and reported as % positive cells (nuclei).

[2] = target: T1, Kv11.1 (hERG) ion channel (Homo sapiens, UniProt Q12809); assay: Kv11.1 (hERG) ion channel activity, whole cell patch clamp; type: cell-based; settings: for Ki: Table 3, HEK293 hERG patch clamp
T1 construct: expressed in transfected cells; host or cells: HEK293
Method: Kv11.1 (hERG) Ion Channel Activity
In this assay, a potential in vitro effect of test compounds on the Kv11.1 (hERG) ion channel current is investigated which mediates the rapidly activating, delayed rectifier cardiac potassium current (IKr). The assay is performed with a stable Kv11.1 (hERG) transfected human embryonic kidney cell line (HEK293) by whole cell patch clamp technique carried out at room temperature.
The Kv11.1 (hERG) ion channel blocker quinidine is used as reference compound. The effects of the test compounds and quinidine are normalized to the corresponding vehicle control. The whole cell recordings are carried out with an automated patch clamp device Patchliner™, Nanion Technologies, Munich). Hereby the Patch Clamp measurements run on silicate-coated chips with a hole of a defined diameter. Solutions, cell suspension and compounds are applied by a Teflon-laminated pipette needle through microfluidic silicate-laminated channels. Commercial patch clamp amplifiers (EPC10, HEKA Elektronik Dr. Schulze GmbH, Germany) are used for the patch clamp recordings. HEK293 cells stably expressing the hERG gene are held at −80 mV. Steady-state inhibition of Kv11.1 (hERG) potassium current due to test/reference compound application is measured using a pulse pattern with fixed amplitudes: 51 ms/−80 mV, 500 ms/+40 mV, 500 ms/−40 mV, 200 ms/−80 mV. The hERG-specific voltage protocol is repeated at 10 s intervals. The leak current is subtracted by a P4 leak subtraction. Cells are resuspended in extracellular patch clamp solution (EC) and applied into the chip. After trapping the cell, the EC is exchanged by seal enhancer solution (SE) to improve the sealing procedure. When the whole cell configuration is attained, seal enhancer is washed out by the application of EC. The recording is started in EC for 1.5 min. Afterwards DMSO (vehicle control, 0.1% DMSO) is applied and the control current is measured for 3 min. Following control steady-state current, test compound is applied twice at the same concentration and the tail current is measured for 3.5 min each. For the determination of a concentration-relationship, the test compound is applied as a cumulative concentration-response curve and each concentration is measured for 5 min. The reference compound quinidine is treated in the same way. The effect on Kv11.1 (hERG) ion channel activity is judged from the tail current amplitude monitored at −40 mV (current of interest, COI). Results are calculated from the last recorded current traces. Changes in Kv11.1 (hERG) ion channel activity between control value, defined as 100% Kv11.1 (hERG) ion channel activity, application of test compound and application of quinidine is reported as percent change of control value of COI. An aliquot of test compound is collected for concentration verification during the recording. The sample is immediately measured by HPLC and the final compound concentration within the assay is calculated according to a calibration curve.

T1 sequence (Q12809 whole entry): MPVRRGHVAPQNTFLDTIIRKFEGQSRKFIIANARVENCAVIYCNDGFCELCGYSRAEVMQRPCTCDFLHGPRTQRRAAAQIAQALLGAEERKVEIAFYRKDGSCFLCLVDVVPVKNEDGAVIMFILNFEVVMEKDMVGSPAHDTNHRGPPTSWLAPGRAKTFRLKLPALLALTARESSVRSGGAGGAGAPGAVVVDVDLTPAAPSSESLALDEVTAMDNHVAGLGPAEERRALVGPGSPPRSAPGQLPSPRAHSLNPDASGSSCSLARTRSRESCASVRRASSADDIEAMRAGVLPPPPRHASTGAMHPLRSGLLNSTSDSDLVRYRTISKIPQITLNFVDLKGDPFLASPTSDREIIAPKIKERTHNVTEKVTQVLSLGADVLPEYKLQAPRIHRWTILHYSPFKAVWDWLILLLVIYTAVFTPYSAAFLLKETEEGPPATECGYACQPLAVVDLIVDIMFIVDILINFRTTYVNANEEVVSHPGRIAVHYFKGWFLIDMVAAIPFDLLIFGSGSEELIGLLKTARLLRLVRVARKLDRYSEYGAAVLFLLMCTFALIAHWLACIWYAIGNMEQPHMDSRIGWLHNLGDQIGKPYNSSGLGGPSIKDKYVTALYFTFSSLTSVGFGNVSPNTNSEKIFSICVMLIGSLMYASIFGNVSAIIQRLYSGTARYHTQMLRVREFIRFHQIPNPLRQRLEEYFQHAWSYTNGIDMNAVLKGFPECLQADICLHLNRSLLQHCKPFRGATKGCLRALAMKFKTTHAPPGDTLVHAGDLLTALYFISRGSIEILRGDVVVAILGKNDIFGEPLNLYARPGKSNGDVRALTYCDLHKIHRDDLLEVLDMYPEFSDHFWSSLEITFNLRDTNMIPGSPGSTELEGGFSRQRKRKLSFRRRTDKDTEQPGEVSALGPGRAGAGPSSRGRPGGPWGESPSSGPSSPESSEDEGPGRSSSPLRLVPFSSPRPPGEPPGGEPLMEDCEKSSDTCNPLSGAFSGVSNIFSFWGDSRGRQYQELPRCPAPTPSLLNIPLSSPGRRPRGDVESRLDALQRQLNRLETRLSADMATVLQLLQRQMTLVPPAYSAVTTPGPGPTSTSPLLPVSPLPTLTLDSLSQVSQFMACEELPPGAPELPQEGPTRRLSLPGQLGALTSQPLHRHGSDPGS

Row | IC50 [1] [nM] | SMILES | hERG % effect @ conc ([2]; @ 30 μM) | Ki [2] [nM] | hERG % effect @ conc ([2]; @ 10 μM)
1 | 10 to 100 | C[C@@H]1COC[C@H]2COc3c(nc(-c4ccnc5[nH]ccc45)nc3C(C)(C)S(C)(=O)=O)N21 [A13, (6R,8aS)-1-(1-Methanesulfonyl-1-methyl-ethyl)-5-methyl-3-(1H-pyrrolo[2,3-b]pyridin-4-yl)-5,6,8a,9-tetrahydro-8H-7,10-dioxa-2,4,4b-triaza-phenanthrene] | – | 6500 | (−55% effect @ 10 μM)
2 | 10 to 100 | C[C@@H]1COC[C@H]2COc3c(nc(-c4c(N)cnc5[nH]ccc45)nc3C(C)(C)S(C)(=O)=O)N21 [A20, 4-[(4bR,8S)-1-(1-Methanesulfonyl-1-methyl-ethyl)-5-methyl-5,6,8a,9-tetrahydro-8H-7,10-dioxa-2,4,4b-triaza-phenanthren-3-yl]-1H-pyrrolo[2,3-b]pyridin-5-ylamine] | – | > 10000 | (−19% effect @ 10 μM)

Row | SMILES | IC50 [1] [nM] | hERG % effect @ conc ([2]; @ 30 μM) | Ki [2] [nM] | hERG % effect @ conc ([2]; @ 10 μM)
3 | CNc1cnc2[nH]ccc2c1-c1nc2c(c(C(C)(C)S(C)(=O)=O)n1)OC[C@@H]1COC[C@@H](C)N21 [A1, {4-[(S)-1-(1-Methanesulfonyl-1-methyl-ethyl)-5-(R)-methyl-5,6,8a,9-tetrahydro-8H-7,10-dioxa-2,4,4b-triaza-phenanthren-3-yl]-1H-pyrrolo[2,3-b]pyridin-5-yl}-methyl-amine] | 10 to 100 | (−50% @ 30 μM) | > 30000 | –
